Test results taken from patent US10293055B2, “Acetylenedicarboxyl linkers and their uses in specific conjugation of a cell-binding molecule” (SUZHOU M-CONJ BIOTECH CO., LTD., priority 2015, dated 2019).

Legend:
[1] = tested on: HL-60, a human promyelocytic leukemia cell line; settings: read-out: IC50 (nM) HL60 cell (Ag+); MTT, 120 hours incubation
Method: (§1) The cell lines used in the cytotoxicity assays were HL-60, a human promyelocytic leukemia cell line; NCI-N87, a human gastric carcinoma cell line; BT-474, a human invasive ductal carcinoma cell line; and SKOV3, a human ovarian carcinoma cell line. For HL-60, NCI-N87, and BT-474 cells, the cells were grown in RPMI-1640 with 10% FBS. For SKOV3 cells, the cells were grown in McCoy's 5A Medium with 10% FBS. To run the assay, the cells (180 μl, 6000 cells) were added to each well in a 96-well plate and incubated for 24 hours at 37° C. with 5% CO2. Next, the cells were treated with test compounds (20 μl) at various concentrations in appropriate cell culture medium (total volume, 0.2 mL). The control wells contain cells and the medium but lack the test compounds. The plates were incubated for 120 hours at 37° C. with 5% CO2. MTT (5 mg/ml) was then added to the wells (20 μl) and the plates were incubated for 1.5 hr at 37° C. The medium was carefully removed and DMSO (180 μl) was added afterward. After it was shaken for 15 min, the absorbance was measured at 490 nm and 570 nm with a reference filter of 620 nm. The inhibition % was calculated according to the following equation: inhibition %=[1-(assay-blank)/(control-blank)]×100.

[2] = tested on: SKOV3, a human ovarian carcinoma cell line
Method: as §1

[3] = tested on: NCI-N87, a human gastric carcinoma cell line
Method: as §1

[4] = tested on: human gastric carcinoma N-87 cell line tumor xenograft; settings: one injection
Method: Five-week-old female BALB/c Nude mice (24 animals) were inoculated subcutaneously in the area under the right shoulder with N-87 carcinoma cells (5×10^6 cells/mouse) in 0.1 mL of serum-free medium. The tumors were grown for 8 days to an average size of 130 mm^3. The animals were then randomly divided into 4 groups (6 animals per group). The first group of mice served as the control group and was treated with the phosphate-buffered saline vehicle. […] Three dimensions of the tumor were measured every 4 days and the tumor volumes were calculated using the formula tumor volume=½ (length×width×height). The weight of the animals was also measured at the same time. A mouse was sacrificed when any one of the following criteria was met: (1) loss of body weight of more than 20% from pretreatment weight, (2) tumor volume larger than 1500 mm^3, (3) too sick to reach food and water, or (4) skin necrosis. A mouse was considered to be tumor-free if no tumor was palpable.

For T-DM1, the IC50 [1] was greater than 15 nM, the “Specificity for SK-OV-3 cell” value ([2]; IC50 HL60 / IC50 SK-OV-3) was “over 78” and the IC50 ([2]; read-out: IC50 (nM) SK-OV-3 cell (Ag+), MTT, 120 hours incubation) was 0.191 nM. For the same substance, the “Specificity for N87 cell” value ([3]; IC50 HL60 / IC50 N87) was “over 55”, the IC50 ([3]; read-out: IC50 (nM) N87 cell (Ag+), MTT, 120 hours incubation) was 0.27 nM and the “Animals with no tumor measurable” value ([4]; 5 mg/Kg intravenously, 6 animals per group) was 2/6. The “Anti-tumor effect (FIG. 11)” value ([4]; 5 mg/kg, i.v.) was “did not completely eliminate the tumor” and the “Duration of tumor growth inhibition” value ([4]; 5 mg/kg, i.v.) was 44 days.
